# Columns and labels:
# [1] = design: method as in PMID 31876113; settings: carboxylic acid form (α-carboxylate protonated by Cys181); cited from earlier work
# H. pylori GR = tested on: H. pylori GR; design: method as in earlier work; settings: ref 8 (Lundqvist et al.); cited from earlier work
# [2] = biological target: T1, H. pylori glutamate racemase (GR) (Helicobacter pylori, UniProt Q9ZLT0); test: Coupled-enzyme assay (L-glutamate dehydrogenase/diaphorase) of D- to L-glutamate racemization; assay type: biochemical; settings: 1.25 mM D-Glu, 2 µM GR, 50 mM TRIS pH 8, 5% DMSO; mean ± SE n = 3 for NP-020560 and Compound A, other hits single repeat
# T1 construct: made in house; host or cells: E. coli BL21 (DE3) pLysS, co-expressed with GroEL/ES
# T1 sequence (Q9ZLT0 whole entry): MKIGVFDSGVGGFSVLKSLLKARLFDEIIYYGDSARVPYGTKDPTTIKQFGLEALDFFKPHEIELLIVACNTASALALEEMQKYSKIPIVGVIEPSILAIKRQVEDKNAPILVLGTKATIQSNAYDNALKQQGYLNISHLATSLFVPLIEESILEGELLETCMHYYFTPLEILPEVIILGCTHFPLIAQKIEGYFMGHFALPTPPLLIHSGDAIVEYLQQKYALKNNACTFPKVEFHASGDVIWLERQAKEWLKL
# Method: The D- to L-glutamate racemization activities of H. pylori GR was assayed through a previously established coupled-enzyme method, utilizing L-glutamate dehydrogenase and diaphorase[40]. […] The assay consists of 1.25 mM D-Glu, 2.51 mM ADP, 5 mM NAD, 0.506 mM INT, 5 Units of L-GDH, 0.4 units of diaphorase and 2 µM GR in 50 mM TRIS, pH = 8. Compound stocks solutions of varying concentrations (100 µM–50 mM) were made in DMSO and introduced in the assay vials. The final DMSO concentration after addition of compounds in the assay was 5% v/v. […] Absorption for the reduced iodonitrotetrazolium was collected by measuring absorbance at 500 nm at 1 min interval for 60 min on Cary 300 UV-VIS Spectrophotometer from Varian (Palo Alto, CA). Absorbance for each compound concentration at every time point were normalized to absorbance for blank, followed by calculating slopes for each concentration. The calculated slopes with the respective log (inhibitor concertation) were fitted to log(inhibitor) vs response (three parameters) model within ‘Nonlinear Regression-Dose Response Inhibition’ in GraphPad Prism version 8.4.3. The program provides output as IC50 and LogIC50 along with respective standard errors, and for ease of expression, we report inhibition data as IC50 (mean ± SE).
# [3] = biological target: T1, H. pylori glutamate racemase (GR); test: Surface plasmon resonance (SPR) binding to immobilized GR; settings: 1:1 Langmuir binding model, absence of substrate D-Glu, 25 °C, 500-7.81 µM dilution series
# Method: We first evaluated the binding affinity of these compounds to H. pylori GR by Surface Plasmon Resonance (SPR). A combination of amine coupling and HisCapture was used to immobilize the protein on the surface of the SPR biosensor. Compounds were injected onto the sensor in increasing concentrations using a dilution series ranging from 500 µM to 7.81 µM (7 concentrations).
# Experiments were performed using a SensiQ Pioneer SPR. The biosensor chip was first equilibrated with SPR running buffer (50 mM Tris-HCl, 100 mM NaCl, TCEP, 1% v/v TWEEN, pH 8.0), then the surface of the biosensor chip was seasoned by injecting 200 μL 50 mM NaOH at 40 μL/min, 200 μL 0.1% v/v SDS at 40 μL/min, and 200 μL 10 mM HCl at 40 μL/min in the test and reference biosensor chip flow channels. This process of seasoning was repeated twice. All buffers and solutions were filter sterilized with 0.22-μm buffer filters before using on the SPR instrument. After seasoning, the lines were primed three times with SPR buffer. […]
# H. pylori GR was immobilized to the biosensor using a HisCapture couple method detailed above. […] All sensograms were analyzed using the program Qdat (2.6.3.0) and it fitted to a model of simple binding of 1:1 Langmuir binding model for all virtual hits. […]
structure (smiles),measurement,setting,value
"N[C@H](CCC(=O)O)C(=O)O [D-Glu, D-glutamate]",pKa of α-carbon of D-Glu substrate,[1],14.4
CC(C)Cn1c(=O)n(C)c(=O)c2c(-c3ccncc3)n(Cc3cccc4ccccc34)nc21 [Compound A],IC50,H. pylori GR,5 µM
Cc1cc2c(c(-c3c(O)c(C)cc4c3C(=O)c3c(O)cc(O)cc3C4=O)c1O)C(=O)c1c(O)cc(O)cc1C2=O [NP-020560],IC50,[2],6.6 ± 3.1 µM
same,Kd,[3],54.7 ± 0.3 µM
